Values joined by “and” are separate entries in the source; they are usually repeats but may differ in a detail not shown here. Equal values may be shown once.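 Dose response: 5 concentrations. Exposure: 48 h. Format: 96-well plates. Endpoint: linear interpolation; highest concentration if not reached. The concentration for 50% growth inhibition is given as GI50. TGI: concentration producing complete growth inhibition.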

What all share (assay): DTP human tumour cell line panel, 48 h
In experiment [1] the test system is 786-0 renal.
For experiment [2], the system named is ACHN renal.
The test system of experiment [3] is IGROV1 ovarian.
In experiment [4] the test system is MOLT-4 leukemia.
Experiment [5] concerns NCI-H23 lung.
In experiment [6] the test system is NCI/ADR-RES ovarian.
For experiment [7], the system named is SF-268 CNS.
Experiment [8] has as its system SNB-75 CNS.
Experiment [9] has as its system TK-10 renal.
Experiment [10] deals with U251 CNS.

`Clc1ccccc1[C@@H]1C[C@@H]2Cc3cc(Br)c4ccccc4c3N1O2`: the GI50 was 5.2 µM in [1]; 5.62 µM in experiment [2]; 10.4 µM in experiment [3]; 6.94 µM in experiment [4]; 8.33 µM in experiment [5]; 2.75 µM in [6]. Moreover, the GI50 in experiment [7] was 5.02 µM; in experiment [8], 3.51 µM; in [9], 5.54 µM; in [10] it was 3.65 µM. Besides, the TGI in experiment [1], in [2], in experiment [3], in experiment [4], in experiment [5] and in experiment [6] was greater than 100 µM in each case. For the same compound, the TGI in [7], in experiment [8], in experiment [9] and in [10] was greater than 100 µM in each case.
As for `CCN(CC)CCC(=O)OC1C(C)=CC(C)C(=O)CC(C(C)CC2CCC(O)C(OC)C2)OC(=O)C2CCCCN2C(=O)C(=O)[C@@]2(O)OC(CCC2C)CC(OC)\C(C)=C/C=C/C=C/C(C)CC(C)C(=O)C1OC` (stereo partly drawn), the TGI in [1] worked out at 22.4 µM; in [2] it was 22.2 µM; in experiment [3] it was 14.7 µM; in experiment [5], 26.4 µM; in experiment [6] it was 25.8 µM; in experiment [7], 20.5 µM. Further, the values for the TGI in experiment [8], in experiment [9] and in [10] were 0.971 µM, 23.2 µM and 23.1 µM, respectively.
`CCn1c(-c2c(Cl)cc(O)cc2Cl)cc2c(Cl)cc(O)cc21`: the TGI is 24.8 µM in experiment [1]; 16.9 µM in experiment [2]; 12.9 µM in experiment [3]; greater than 100 µM in experiment [4]; 39 µM in experiment [5]; greater than 100 µM in [6]. Also, the TGI in [7] is 16.1 µM; in [8] it was 20.9 µM; in [9], 59.2 µM; in experiment [10], 17 µM.
Take `CN(C)c1ccc(C(=N)c2ccc(N(C)C)cc2)cc1`: the GI50 in [1] is 6.12 µM and 8.26 µM; in [2] it was 6.5 µM and 7.39 µM; in experiment [3], 3.45 µM and 7.32 µM; in experiment [4], 3.66 µM; in experiment [5] it was 4.47 µM and 2.16 µM; in experiment [6], 1.68 µM and 1.52 µM. The GI50 in experiment [7] is 4.64 µM and 11.6 µM; in experiment [8] it was 1.65 µM and 1.63 µM; in experiment [9], 4.47 µM and 7.22 µM; in experiment [10], 3.54 µM and 3.11 µM. Besides, the TGI in experiment [1] was 24.4 µM and 32 µM; in experiment [2] it was greater than 100 µM; in experiment [3] it was 31.7 µM and > 100 µM; in experiment [4], 26 µM; in experiment [5] it was 34.6 µM and 6.59 µM; in experiment [6], 7.42 µM and 5.04 µM. Besides, the TGI in experiment [7] is 43.4 µM and > 100 µM; in experiment [8] it was 11.4 µM and 7.35 µM; in experiment [9], 38.9 µM and 91.6 µM; in experiment [10] it was 18.9 µM and 17.7 µM.
Regarding `O=c1cc(-c2ccccc2)oc2ccc(OC/C(=N/O)c3ccc(F)cc3)cc12`, the GI50 in [1] was 8.97 µM; in experiment [2], 10.3 µM; in [3], 21.7 µM; in experiment [4] it was 3.54 µM; in experiment [5], 5.43 µM; in experiment [6], 2.97 µM. Besides, the GI50 in [7] is 3.62 µM; in [8], 4.64 µM; in experiment [9], greater than 50 µM; in experiment [10], 3.03 µM. For the same compound, the TGI in experiment [1] is greater than 50 µM; in experiment [2] it was greater than 50 µM; in experiment [3], greater than 50 µM; in [4], greater than 50 µM; in experiment [5], 38.4 µM; in [6] it was 12.8 µM. Besides, the TGI in experiment [7] is 14.3 µM; in experiment [8], greater than 50 µM; in [9], greater than 50 µM; in experiment [10] it was 43.7 µM.
With `C=C(C)[C@@H]1C/C=C(/CO)CC[C@H]2O[C@]2(C)CC/C=C(\C)CC1`, the GI50 was 15.4 µM in [1]; 29.5 µM in experiment [2]; 18.6 µM in experiment [3]; 12.7 µM in [4]; 20.7 µM in experiment [5]; 29.9 µM in [6]. Moreover, the GI50 was 19.9 µM in [7], 12.1 µM in [8], 9.74 µM in experiment [9] and 19.9 µM in experiment [10]. For the same compound, the TGI in [1] was 34.2 µM; in experiment [2], greater than 100 µM; in experiment [3], 41.3 µM; in [4], 32 µM; in [5], 66.9 µM; in [6], greater than 100 µM. Besides, the total growth inhibition concentration (TGI) in experiment [7] was found to be 38.2 µM; in experiment [8] it was 31.3 µM; in experiment [9], 32.8 µM; in experiment [10], 36.2 µM.
Turning to `COc1cc(OC)c(/C=C/C(=O)c2ccc(Nc3ncnc4ccccc34)cc2)c(OC)c1`, the GI50 was 1.47 µM in experiment [1]; 1.83 µM in [2]; 1.93 µM in experiment [3]; 0.898 µM in [4]; 0.843 µM in experiment [5]; 0.394 µM in experiment [6]. Besides, the GI50 is 1.37 µM in [7], 0.305 µM in experiment [8], 1.54 µM in experiment [9] and 0.686 µM in [10]. In addition, the total growth inhibition concentration (TGI) in experiment [1] is 3.55 µM; in experiment [2], 17.7 µM; in experiment [3], 20.3 µM; in [4], greater than 100 µM; in experiment [5], 11.5 µM; in [6], 2.55 µM. Also, the TGI in experiment [7] turned out to be 4.4 µM; in experiment [8] it was 1.55 µM; in experiment [9] it was 3.68 µM; in [10], 2.73 µM.
For the compound `O=C1NC(=O)[C@@]2(CC[C@@H](O)C2)c2ccncc21`, the TGI in [1], in [2], in experiment [3], in [4], in [5] and in [6] was greater than 100 µM each time. Further, the TGI in [7], in experiment [8], in experiment [9] and in experiment [10] was greater than 100 µM each time.
For `O=C(O)C(Br)C(Br)C(=O)O` (stereo not drawn), the TGI in experiment [1], in [2], in experiment [3], in experiment [5], in [6] and in experiment [7] was greater than 100 µM each time. In addition, the TGI in [8], in experiment [9] and in experiment [10] was greater than 100 µM each time.

(Values after PubChem BioAssay (NCI).)
